Test results: US7579353B2, “Pyridinone derivatives against malaria” (Glaxo Group Limited, priority 2005, dated 2009)
Converted amounts (≈) assume the structure as drawn. Where two headings read alike, the source gives them in different places.

Legend:
[1] = test system: Plasmodium falciparum; assay: In vitro anti-malarial activity against Plasmodium falciparum, IC50 assay / [3H]-hypoxanthine incorporation assay; format: cell-based; details: Erythrocyte, parasitized red blood cells, 48 hours
Description: In Vitro Anti-malarial Activity Against Plasmodium falciparum
IC50 Assay/[^3H]-Hypoxanthine Assay
Plasmodium falciparum strains.
The culture medium comprised RPMI 1640 with 25 mM HEPES, sodium bicarbonate and glutamine (GIBCO™ cat. ref.: 52400), supplemented with 10% of pooled human sera AB (Irvine Scientific, cat. ref.: 5009) and HT supplement (0.15 mM hypoxanthine and 24 μM thymidine), (GIBCO™ cat. ref.: 41065). Human sera were decomplemented 30 min. at 56° C., aliquoted and stored frozen at −20° C. until use in this culture medium.
Red blood cells O+ stock suspensions were prepared from whole blood bags coming from incomplete blood donation, provided by the Spanish Red Cross (<25 days after sampling). This “whole blood” was aliquoted and stored at 4° C.
To prepare red blood cells for the assay, the whole blood was centrifuged and washed 3 times with RPMI without serum. The upper phase, containing white blood cells was removed. The washed red blood cells were kept as a 50% suspension in complete medium. The prepared cells were stored at 4° C. and were employed in the assay at any time up to 4 days after preparation.
Test compounds were dissolved at 2 mg/ml in 100% DMSO on the day of the assay. If necessary, complete dissolution was achieved by gentle heating (the mixture was heated at a temperature <37° C.) and sonication (sonication bath).
For IC50 determinations, 10 serial 2-fold dilutions were prepared in complete medium in the presence of a constant amount of DMSO.
Plasmodium falciparum strains were maintained in complete medium at an hematocrit of 5% in continuous culture using a method adapted from Trager and Jensen (1, 2).
The parasitemia was calculated by counting the percentage of parasitized erythrocytes by optical microscopy. Thin films of blood were made every day from each culture flask, fixed with methanol and stained for 10 min. in Giemsa (Merck, cat ref.: 1.09204) at 10% in buffered water pH 7.2. The glass slides were observed and counted with an optical microscope (Nikon, Eclipse E200) equipped with a 100× immersion oil objective.
The culture was maintained at an hematocrit of 5%, with a daily change of medium and was diluted when parasitemia had reached about 5%.
[^3H] Hypoxanthine incorporation assay was conducted using a method adapted from Desjardins et al. (3). The assays were performed in 96 wells flat bottom microplates.
1. Serial dilutions of the test compounds (50 μl of a 5× solution/well) were deposited in duplicate. Compounds of the invention were tested in this assay. Chloroquine and Atovaquone were used as control compounds for each assay.
3. [^3H]-Hypoxanthine (Amersham Biosciences, cat. ref.: TRK74) was added extemporaneously to the inoculum suspension at a concentration of 1 μCi/ml (equating to […]). 200 μl of the resulting suspension was distributed into each well (other than the control well H12 described below) leading to a final volume of 250 μl per well, at 2% of hematocrit and 0.5% of parasitemia/well.
4. In each plate, 2 columns were reserved for control wells: • Column 11: Positive control wells: PRBCs with 0.2% DMSO—(i) to determine DMSO solvent effect on parasite growth (at a final concentration of 0.2%) and (ii) to compare with cultures treated with test compounds. • Column 12 (comprising wells A12-H12): • A12-D12—Background value wells: Uninfected RBCs—blank control to obtain the background reading from RBCs without parasites. • E12-G12—Solvent effect wells: PRBCs without DMSO—to determine DMSO solvent effect on PRBCs by comparing these wells with column 11 wells. • H12-Non-radioactive well: PRBCs with cold hypoxanthine—(i) to carry out a thin blood film to determine parasitemia value after incubation by microscopy and (ii) to ensure that the parasites have grown properly during the assay. (200 μl of inoculum suspension was prepared as described above (Items 2 and 3) but with non-tritiated hypoxanthine instead of [3H]-hypoxanthine, then added to this well to a final volume of 250 μl). […]

[2] = Compound solubility determination (gross and equilibrium solubility; FaSSIF, FeSSIF, pH 7.4 PBS, pH 1.0 0.1N HCl, pH 4.5 sodium citrate); format: physicochemical; details: thermodynamic from solid
Description: Compound Solubility Determination
An amount of 3 mg solid compound with LC-MS purity ≧95% was required. This amount was split between 3 different glass vials (1.8 ml volume each), placing 1 mg compound into each one.
Organic solvents of HPLC grade were used. Ultra pure water (Milli-Q grade) was used. Buffers were prepared with ultra pure water and filtered using 0.45μ cameo filters. The compositions of each solvent employed in this assay are described below (part III).
2. Determination of Equilibrium Solubility (Assuming Chemical Stability in the Desired Solvent is not a Problem).
For each of the three vial samples prepared as described above, in which the amount of compound was totally dissolved, the following procedure was subsequently carried out: • a) A small amount (approx. 0.1 mg) of additional solid compound was added to the vial to maintain an excess of the compound in the mixture in the form of undissolved solid. • b) The samples were magnetically stirred for 24 hr. If required, additional solid compound (0.1 mg) was added to maintain excess of it and then the samples were stirred again. • c) Then the samples were filtered (Millipore Milex filters nylon 0.2 um) and three aliquots were taken (one from each of the three vials) and analysed by LC-MS. • d) The pH of the final solution in each sample was measured with a pH-meter (WTW pH330i and a pH-electrode Sentix 41).
3. LC-MS Assay for Analytical Quantification
All filtered aliquots were analysed by LC-MS. The analysis was carried out with a Luna 5 μC18 (2) column 4.6×150 mm, using a HP1100 HPLC instrument interfaced with a Waters ZMD-2000 MS spectrometer. The concentration of the final sample as prepared above was calculated from that of a reference calibration curve obtained from serial dilutions of a 2 mM solution of the compound under investigation in DMSO (Aldrich cat. ref.: 27685-5) stock solution.
The analysis of all LC-MS data was performed with MassLynx 3.4 software. Statistical and graphic analysis of data was performed using Microsoft Excel. The concentration (uM) and solubility (ug/ml) for each compound was calculated using the peak areas from the sample and those from the calibration curve.
A) FaSSIF is a solvent which simulates the Fasted State of the Intestinal Fluid. (FaSSIF: Fasted State Simulated Intestinal Fluid).
B) FeSSIF is a solvent which simulates the Fed State of the Intestinal Fluid. (FeSSIF: Fed State Simulated Intestinal Fluid).
C) Solubility at pH 7.4 was determined in phosphate buffered saline (PBS) (Fluka cat. ref: 79383)
D) Solubility at pH 1.0 was determined in 0.1N HCl solution (Scharlau AL0744010C)
E) Solubility at pH 4.5 was determined in sodium citrate 0.5M solution. (Aldrich 25, 127-5)

[3] = 0.1N HCl solution, simulated gastric fluid, pH 1 (HCl), read-out: Solubility at pH 1 (HCl)
[4] = FaSSIF (fasted state simulated intestinal fluid), fassif, read-out: Solubility in FaSSIF
[5] = phosphate buffered saline (PBS), aqueous buffer, pH 7.4 (PBS), read-out: Solubility at pH 7.4 (PBS)
[6] = sodium citrate 0.5M solution, aqueous buffer, pH 4.5 (Na citrate), read-out: Solubility at pH 4.5 (Na citrate)

Row | SMILES | IC50 [1] | solubility at 24 h ([2]; aqueous buffer, pH 4.5 (Na citrate), read-out: Solubility at pH 4.5 (Na citrate)) | solubility at 24 h ([2]; aqueous buffer, pH 7.4 (PBS), read-out: Solubility at pH 7.4 (PBS)) | solubility at 24 h ([2]; fassif, read-out: Solubility in FaSSIF) | solubility at 24 h ([2]; simulated gastric fluid, pH 1 (HCl), read-out: Solubility at pH 1 (HCl)) | solubility at 24 h [2, 3] | solubility at 24 h [2, 4] | solubility at 24 h [2, 5] | solubility at 24 h [2, 6] | solubility at 24 h ([2]; FeSSIF (fed state simulated intestinal fluid), fessif, read-out: Solubility in FeSSIF)
1 | Cc1[nH]c(C)c(-c2ccc(OCc3ccc(C(F)(F)F)cc3)nc2)c(=O)c1Cl [Example 10, 5-Chloro-2,6-dimethyl-6′-{[4-(trifluoromethyl)benzyl]oxy}-3,3′-bipyridin-4(1H)-one] | < 0.125 µg/mL | < 1 µg/mL | < 1 µg/mL | < 1 µg/mL | 5 to 10 µg/mL (≈ 12.2 to 24.5 µM) |  |  |  |  | 
2 | Cc1[nH]c(C)c(-c2ccc(-c3ccc(C(F)(F)F)cc3)nc2)c(=O)c1Br [Example 16, 5-Bromo-2,6-dimethyl-6′-{4-[trifluoromethyl]phenyl}-3,3′-bipyridin-4(1H)-one] | < 0.125 µg/mL |  |  |  |  | 10 to 50 µg/mL (≈ 23.6 to 118 µM) | < 1 µg/mL | < 1 µg/mL | < 1 µg/mL | 
3 | Cc1[nH]c(C)c(-c2ccc(-c3cccc(C(F)(F)F)c3)nc2)c(=O)c1Br [Example 17, 5-Bromo-2,6-dimethyl-6′-{3-[trifluoromethyl]phenyl}-3,3′-bipyridin-4(1H)-one] | < 0.125 µg/mL |  |  |  |  | ≥ 50 µg/mL | 1 to 5 µg/mL (≈ 2.36 to 11.8 µM) | < 1 µg/mL | < 1 µg/mL | 
4 | Cc1[nH]c(C)c(-c2ccc(-c3ccccc3C(F)(F)F)nc2)c(=O)c1Br [Example 18, 5-Bromo-2,6-dimethyl-6′-{2-[trifluoromethyl]phenyl}-3,3′-bipyridin-4(1H)-one] | < 0.125 µg/mL |  |  |  |  | ≥ 50 µg/mL | 10 to 50 µg/mL (≈ 23.6 to 118 µM) | 10 to 50 µg/mL (≈ 23.6 to 118 µM) | 10 to 50 µg/mL (≈ 23.6 to 118 µM) | 
5 | Cc1[nH]c(C)c(-c2ccc(-c3ccc(Cl)cc3)nc2)c(=O)c1Br [Example 19, 5-Bromo-6′-(4-chlorophenyl)-2,6-dimethyl-3,3′-bipyridin-4(1H)-one] | < 0.125 µg/mL |  |  |  |  | 10 to 50 µg/mL (≈ 25.7 to 128 µM) | 1 to 5 µg/mL (≈ 2.57 to 12.8 µM) | 1 to 5 µg/mL (≈ 2.57 to 12.8 µM) | 1 to 5 µg/mL (≈ 2.57 to 12.8 µM) | 5 to 10 µg/mL (≈ 12.8 to 25.7 µM)
6 | Cc1[nH]c(C)c(-c2ccc(-c3cccc(Cl)c3)nc2)c(=O)c1Br [Example 20, 5-Bromo-6′-(3-chlorophenyl)-2,6-dimethyl-3,3′-bipyridin-4(1H)-one] | < 0.125 µg/mL |  |  |  |  | ≥ 50 µg/mL | < 1 µg/mL | < 1 µg/mL | < 1 µg/mL | 
7 | Cc1[nH]c(C)c(-c2ccc(-c3ccccc3Cl)nc2)c(=O)c1Br [Example 21, 5-Bromo-6′-(2-chlorophenyl)-2,6-dimethyl-3,3′-bipyridin-4(1H)-one] | < 0.125 µg/mL |  |  |  |  | ≥ 50 µg/mL | 5 to 10 µg/mL (≈ 12.8 to 25.7 µM) | 1 to 5 µg/mL (≈ 2.57 to 12.8 µM) | 5 to 10 µg/mL (≈ 12.8 to 25.7 µM) | 
8 | Cc1[nH]c(C)c(-c2ccc(-c3ccc(F)cc3)nc2)c(=O)c1Br [Example 22, 5-Bromo-6′-(4-fluorophenyl)-2,6-dimethyl-3,3′-bipyridin-4(1H)-one] | < 0.125 µg/mL |  |  |  |  | ≥ 50 µg/mL | 1 to 5 µg/mL (≈ 2.68 to 13.4 µM) | 1 to 5 µg/mL (≈ 2.68 to 13.4 µM) | 1 to 5 µg/mL (≈ 2.68 to 13.4 µM) | 
9 | Cc1[nH]c(C)c(-c2ccc(-c3ccccc3F)nc2)c(=O)c1Br [Example 23, 5-Bromo-6′-(2-fluorophenyl)-2,6-dimethyl-3,3′-bipyridin-4(1H)-one] | < 0.125 µg/mL |  |  |  |  | ≥ 50 µg/mL | 1 to 5 µg/mL (≈ 2.68 to 13.4 µM) | 1 to 5 µg/mL (≈ 2.68 to 13.4 µM) | 5 to 10 µg/mL (≈ 13.4 to 26.8 µM) | 
10 | Cc1[nH]c(C)c(-c2ccc(-c3ccc(C(F)(F)F)cc3C(F)(F)F)nc2)c(=O)c1Br [Example 24, 5-Bromo-2,6-dimethyl-6′-{2,4-bis[trifluoromethyl]phenyl}-3,3′-bipyridin-4(1H)-one] | < 0.125 µg/mL |  |  |  |  | 5 to 10 µg/mL (≈ 10.2 to 20.4 µM) | < 1 µg/mL | < 1 µg/mL | < 1 µg/mL | 
11 | Cc1[nH]c(C)c(-c2ccc(-c3cc(C(F)(F)F)cc(C(F)(F)F)c3)nc2)c(=O)c1Br [Example 25, 5-Bromo-2,6-dimethyl-6′-{3,5-bis[trifluoromethyl]phenyl}-3,3′-bipyridin-4(1H)-one] | < 0.125 µg/mL |  |  |  |  | 1 to 5 µg/mL (≈ 2.04 to 10.2 µM) | < 1 µg/mL | < 1 µg/mL | < 1 µg/mL | 
12 | CCCCc1ccc(-c2ccc(-c3c(C)[nH]c(C)c(Br)c3=O)cn2)cc1 [Example 26, 5-Bromo-6′-(4-n-butylphenyl)-2,6-dimethyl-3,3′-bipyridin-4(1H)-one] | < 0.125 µg/mL |  |  |  |  | 10 to 50 µg/mL (≈ 24.3 to 122 µM) | 10 to 50 µg/mL (≈ 24.3 to 122 µM) | < 1 µg/mL | < 1 µg/mL | 
13 | Cc1[nH]c(C)c(-c2ccc(-c3ccc(F)cc3)nc2)c(=O)c1Cl [Example 36, 5-Chloro-6′-(4-fluorophenyl)-2,6-dimethyl-3,3′-bipyridin-4(1H)-one] | < 0.125 µg/mL |  |  |  |  | ≥ 50 µg/mL | 1 to 5 µg/mL (≈ 3.04 to 15.2 µM) | 1 to 5 µg/mL (≈ 3.04 to 15.2 µM) | 1 to 5 µg/mL (≈ 3.04 to 15.2 µM) | 
14 | Cc1[nH]c(C)c(-c2ccc(-c3ccccc3F)nc2)c(=O)c1Cl [Example 37, 5-Chloro-6′-(2-fluorophenyl)-2,6-dimethyl-3,3′-bipyridin-4(1H)-one] | < 0.125 µg/mL |  |  |  |  | ≥ 50 µg/mL | 10 to 50 µg/mL (≈ 30.4 to 152 µM) | 10 to 50 µg/mL (≈ 30.4 to 152 µM) | 10 to 50 µg/mL (≈ 30.4 to 152 µM) | 
